Measured values from publication PMC2834293 (Journal of medicinal chemistry, 2010).

How the values were obtained:
[1] = molecular target: recombinant soluble human furin (Homo sapiens, UniProt P09958); assay: Enzyme kinetics with furin; assay type: biochemical
[2] = Stability of stock solution in water; assay type: physicochemical; conditions: room temperature, two weeks
[3] = test system: fowl plague virus (FPV, Rostock strain); conditions: 25 μM inhibitor, up to 72 h
[4] = test system: fowl plague virus hemagglutinin cleavage in MDCK cells; assay type: cell-based, influenza virus A/FPV/Rostock/34 (H7N1); conditions: FPV-infected MDCK cells; data not shown
furin = conditions: read-out: Ki furin; cited from earlier work

Sequence of recombinant soluble human furin (P09958 108-715 limits assumed): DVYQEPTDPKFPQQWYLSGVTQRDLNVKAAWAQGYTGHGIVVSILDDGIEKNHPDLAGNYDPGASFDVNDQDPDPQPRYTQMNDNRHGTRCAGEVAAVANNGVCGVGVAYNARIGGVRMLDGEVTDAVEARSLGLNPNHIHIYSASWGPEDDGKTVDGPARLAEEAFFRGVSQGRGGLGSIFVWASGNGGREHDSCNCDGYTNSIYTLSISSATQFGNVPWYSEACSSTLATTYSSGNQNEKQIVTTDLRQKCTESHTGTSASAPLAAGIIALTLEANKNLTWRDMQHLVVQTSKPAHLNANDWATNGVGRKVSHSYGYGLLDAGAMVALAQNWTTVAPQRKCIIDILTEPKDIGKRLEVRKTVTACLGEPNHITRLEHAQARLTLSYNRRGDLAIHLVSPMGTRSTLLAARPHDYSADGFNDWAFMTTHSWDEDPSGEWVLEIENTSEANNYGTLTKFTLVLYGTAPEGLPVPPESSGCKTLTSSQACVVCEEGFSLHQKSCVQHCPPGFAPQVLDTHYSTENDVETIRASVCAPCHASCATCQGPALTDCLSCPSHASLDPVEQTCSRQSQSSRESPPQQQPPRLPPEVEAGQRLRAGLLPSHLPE

| Molecule | Ki [1] | activity in the cellular HA cleavage assay compared with inhibitor 15 [4] | further results |
| --- | --- | --- | --- |
| N=C(N)c1ccccc1 [benzamidine, reference compound] | 750 µM |  |  |
| N=C(N)c1ccc(CN)cc1 [compound 1, 4-amidinobenzylamine] | 1200 µM |  |  |
| CC(C)[C@H](NC(=O)[C@H](CCCNC(=N)N)NC(=O)Cc1ccccc1)C(=O)N[C@@H](CCCNC(=N)N)C(=O)NCc1ccc(C(=N)N)cc1 [compound 15, Phac-Arg-Val-Arg-4-(amidomethyl)benzamidine] |  |  | change in HPLC elution profile on storage [2]: could not detect any change; viability of the cells in the presence of inhibitor ([3]; MDCK cells): not noticeably influenced; delay of virus release versus untreated infected cultures ([3]; MOI 10^-5, MDCK cells): about 24 h |
| CCCCCCCCCC(=O)N[C@@H](CCCNC(=N)N)C(=O)N[C@H](C(=O)N[C@@H](CCCNC(=N)N)C(=O)NCc1ccc(C(=N)N)cc1)C(C)C [compound 16] |  | Very similar results |  |
| CC(=O)N[C@@H](CCCNC(=N)N)C(=O)N[C@H](C(=O)N[C@@H](CCCNC(=N)N)C(=O)NCc1ccc(C(=N)N)cc1)C(C)C [compound 17] |  | reduced activity |  |
| nona-D-arginine |  |  | Ki (furin): 0.0013 µM |
